Laboratory results taken from patent US8481525B2, “Kinase inhibitors and method of treating cancer with same” (University of Health Network, priority 2009, dated 2013).
Like-named read-outs stand apart in the source and are kept apart here.

Legend:
Aurora A = molecular target: T1, Aurora A (Homo sapiens, UniProt O14965); assay: Aurora A Inhibition Assay (Z-Lyte); assay type: biochemical; conditions: read-out: Aurora A relative inhibition percentage at a dose of 1 μM
T1 construct: purchased Invitrogen PV3612
T1 sequence (O14965 1-403): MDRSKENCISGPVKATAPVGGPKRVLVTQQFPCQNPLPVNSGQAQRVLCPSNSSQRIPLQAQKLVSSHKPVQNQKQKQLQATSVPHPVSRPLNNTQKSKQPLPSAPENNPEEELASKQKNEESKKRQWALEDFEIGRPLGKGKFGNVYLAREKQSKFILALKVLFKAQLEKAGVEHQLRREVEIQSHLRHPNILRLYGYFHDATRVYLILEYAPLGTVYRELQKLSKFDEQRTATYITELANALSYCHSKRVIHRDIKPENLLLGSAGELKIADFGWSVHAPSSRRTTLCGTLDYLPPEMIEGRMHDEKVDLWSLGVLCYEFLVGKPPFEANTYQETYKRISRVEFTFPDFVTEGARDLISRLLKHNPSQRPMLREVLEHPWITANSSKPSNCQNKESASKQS
Protocol: Aurora A inhibition was determined using the Z-Lyte assay kit from Invitrogen. The assay was performed using the recommended manufacturer's instructions with 20 μM ATP and 12 nM Aurora A (Invitrogen cat # PV3612). The % inhibition values were determined according to the manufacturer's directions and IC50 values were obtained using a non-linear 4 point logistic curve fit (XLfit4, IDBS)

[1] = test system: MDA-MB-468 basal breast cancer cell line; assay: Cell growth inhibition, Sulforhodamine B assay (SRB); assay type: cell-based; conditions: Homo sapiens, read-out: Cell Line GI50 Range MDA-MB-468
Protocol: (§1) The cells were cultured for 5 days before the Sulforhodamine B assay (SRB) was performed to determine the compound's cell growth inhibition activity.
(§2) Sulforhodamine B (purchased from Sigma, Oakville, ON, Canada) is a water-soluble dye that binds to the basic amino acids of the cellular proteins. Thus, colorimetric measurement of the bound dye provides an estimate of the total protein mass that is related to the cell number. the cells are fixed in situ by gently aspirating off the culture media and adding 50 μl ice cold 10% Trichloroacetic Acid (TCA) per well and incubate at 4° C. for 30-60 min, The plates are washed with water five times and allowed to air dry for 5 min. […] Following staining, plates are washed four times with 1% acetic acid to remove unbound dye and then allowed to air dry for 5 min. […] Absorbance is read at 570 nm.
(§3) The percentage (%) of relative growth inhibition was calculated by comparing to DMSO treated only cells (100%). GI50's were determined for compounds with cytotoxic activity. The GI50 was calculated using GraphPad PRISM software (GraphPad Software, Inc., San Diego, Calif., USA).

[2] = test system: MCF-7 luminal breast cancer cell line; assay: as above; assay type: cell-based; conditions: Homo sapiens, MCF7, 120 h, 5 days culture, SRB
Protocol: as §1, §2, §3

[3] = test system: HCC1954 basal breast cancer cell line; assay: as above; assay type: cell-based; conditions: Homo sapiens, read-out: Cell Line GI50 Range HCC-1954
Protocol: as §1, §2, §3

[4] = test system: A549 lung cancer cell line; assay: as above; assay type: cell-based; conditions: Homo sapiens, read-out: Cell Line GI50 Range A-549
Protocol: as §1, §2, §3

[5] = test system: SW620 colon cancer cell line; assay: as above; assay type: cell-based; conditions: Homo sapiens, SW-620, 120 h, 5 days culture, SRB
Protocol: as §1, §2, §3

[6] = 120 h, MDA-MB-468 basal breast cancer cell line, 5 days culture, SRB
[7] = MCF-7 luminal breast cancer cell line, read-out: Cell Line GI50 Range MCF-7
[8] = HCC1954, 120 h, HCC1954 basal breast cancer cell line, 5 days culture, SRB
[9] = 120 h, A549 lung cancer cell line, 5 days culture, SRB
[10] = SW620 colon cancer cell line, read-out: Cell Line GI50 Range SW-620
[11] = 120 h, HCC1954 basal breast cancer cell line, 5 days culture, SRB

## COc1ccc2c(c1)[C@@]1(C[C@@H]1c1ccc3c(/C=C/c4ccc(CN5CCOCC5)cc4)n[nH]c3c1)C(=O)N2 (racemic) [Example A41, (1R*,2S*)-(E)-5′-methoxy-2-(3-(4-(morpholinomethyl)styryl)-1H-indazol-6-yl)spiro[cyclopropane-1,3′-indolin]-2′-one 2,2,2-trifluoroacetate]
Aurora A; 1 μM compound, 20 μM ATP
  inhibition at 1 µM: > 50%

## O=C1Nc2ccccc2[C@@]12C[C@@H]2c1ccc2c(/C=C/c3ccc(CN4CCCCC4)cc3)n[nH]c2c1 (racemic) [Example A57, (1R*,2S*)-(E)-2-(3-(4-(piperidin-1-ylmethyl)styryl)-1H-indazol-6-yl)spiro[cyclopropane-1,3′-indolin]-2′-one 2,2,2-trifluoroacetate]
Aurora A; 1 μM compound, 20 μM ATP
  inhibition at 1 µM: > 50%

## O=C1Nc2ccccc2[C@@]12C[C@@H]2c1ccc2c(/C=C/c3ccc(CN4CCCC4)cc3)n[nH]c2c1 (racemic) [Example A60, (1R*,2S*)-(E)-2-(3-(4-(pyrolidin-1-ylmethyl)styryl)-1H-indazol-6-yl)spiro[cyclopropane-1,3′-indolin]-2′-one 2,2,2-trifluoroacetate]
Aurora A; 1 μM compound, 20 μM ATP
  inhibition at 1 µM: > 50%

## COc1ccc2c(c1)[C@@]1(C[C@@H]1c1ccc3c(-c4ccc(N5CCN(C(C)C)CC5)cc4)n[nH]c3c1)C(=O)N2 (racemic) [Example A96, (1R*,2S*)-2-(3-(4-(4-isopropylpiperazin-1-yl)phenyl)-1H-indazol-6-yl)-5′-methoxyspiro[cyclopropane-1,3′-indolin]-2′-one]
Aurora A; 1 μM compound, 20 μM ATP
  inhibition at 1 µM: < 50%
[1]; [6]
  GI50: < 100 nM
[2]; [7]
  GI50: < 100 nM
[3]; [8]
  GI50: 1000 to 10000 nM
[4]; [9]
  GI50: < 100 nM
[5]; [10]
  GI50: < 100 nM

## Cc1ccc2c(c1)[C@@]1(C[C@@H]1c1ccc3c(-c4ccc(N5CCN(C)CC5)cc4)n[nH]c3c1)C(=O)N2 (racemic) [Example A173, (1R*,2S*)-5′-methyl-2-(3-(4-(4-methylpiperazin-1-yl)phenyl)-1H-indazol-6-yl)spiro[cyclopropane-1,3′-indolin]-2′-one 2,2,2-trifluoroacetate]
[1]; [6]
  GI50: 100 to 1000 nM
[2]; [7]
  GI50: 100 to 1000 nM
[3]; [11]
  GI50: 100 to 1000 nM
[4]; [9]
  GI50: 100 to 1000 nM
[5]; [10]
  GI50: 100 to 1000 nM

## COc1ccc2c(c1)[C@@]1(C[C@@H]1c1ccc3c(/C=C/c4ccc(N5CCN(C)CC5)cc4)n[nH]c3c1)C(=O)N2 (racemic) [Example A174, (1R*,2S*)-(E)-5′-methoxy-2-(3-(4-(4-methylpiperazin-1-yl)styryl)-1H-indazol-6-yl)spiro[cyclopropane-1,3′-indolin]-2′-one 2,2,2-trifluoroacetate]
[1]; [6]
  GI50: < 100 nM
[2]; [7]
  GI50: < 100 nM
[3]; [11]
  GI50: 100 to 1000 nM
[4]; [9]
  GI50: < 100 nM
[5]; [10]
  GI50: < 100 nM

## COc1ccc2c(c1)[C@@]1(C[C@@H]1c1ccc3c(/C=C/c4ccc(CCN5CCOCC5)cc4)n[nH]c3c1)C(=O)N2 (racemic) [Example A178, (1R*,2S*)-(E)-5′-methoxy-2-(3-(4-(2-morpholinoethyl)styryl)-1H-indazol-6-yl)spiro[cyclopropane-1,3′-indolin]-2′-one 2,2,2-trifluoroacetate]
[1]; [6]
  GI50: < 100 nM
[2]; [7]
  GI50: < 100 nM
[3]; [8]
  GI50: 100 to 1000 nM
[4]; [9]
  GI50: < 100 nM
[5]; [10]
  GI50: < 100 nM

## COc1ccc2c(c1)[C@@]1(C[C@@H]1c1ccc3c(/C=C/c4csc(CN5CCOCC5)c4)n[nH]c3c1)C(=O)N2 (racemic) [Example A184, (1R*,2S*)-5′-methoxy-2-(3-((E)-2-(5-(morpholinomethyl)thiophen-3-yl)vinyl)-1H-indazol-6-yl)spiro[cyclopropane-1,3′-indolin]-2′-one 2,2,2-trifluoroacetate]
Aurora A; 1 μM compound, 20 μM ATP
  inhibition at 1 µM: > 50%
[1]; [6]
  GI50: < 100 nM
[2]; [7]
  GI50: 100 to 1000 nM
[3]; [11]
  GI50: > 10000 nM
[4]; [9]
  GI50: < 100 nM
[5]; [10]
  GI50: < 100 nM

## CCN1CCN(c2ccc(/C=C/c3n[nH]c4cc([C@@H]5C[C@@]56C(=O)Nc5ccc(OC)cc56)ccc34)cc2)CC1 (racemic) [Example A188, (1R*,2S*)-(E)-2-(3-(4-(4-ethylpiperazin-1-yl)styryl)-1H-indazol-6-yl)-5′-methoxyspiro[cyclopropane-1,3′-indolin]-2′-one 2,2,2-trifluoroacetate]
Aurora A; 1 μM compound, 20 μM ATP
  inhibition at 1 µM: > 50%
[1]; [6]
  GI50: < 100 nM
[2]; [7]
  GI50: < 100 nM
[3]; [11]
  GI50: 100 to 1000 nM
[4]; [9]
  GI50: < 100 nM
[5]; [10]
  GI50: < 100 nM

## Cc1ccc2c(c1)[C@@]1(C[C@@H]1c1ccc3c(/C=C/c4ccc(CN5CCOCC5)cc4)n[nH]c3c1)C(=O)N2 (racemic) [Example A196, (1R*,2S*)-(E)-5′-methyl-2-(3-(4-(morpholinomethyl)styryl)-1H-indazol-6-yl)spiro[cyclopropane-1,3′-indolin]-2′-one 2,2,2-trifluoroacetate]
Aurora A
  inhibition at 1 µM: > 50%

## COc1ccc2c(c1)[C@@]1(C[C@@H]1c1ccc3c(/C=C/c4cc(F)c(CN5CCOCC5)c(F)c4)n[nH]c3c1)C(=O)N2 (racemic) [Example A217, (1R*,2S*)-(E)-2-(3-(3,5-difluoro-4-(morpholinomethyl)styryl-1H-indazol-6-yl)-5′-methoxyspiro[cyclopropane-1,3′-indolin]-2′-one 2,2,2-trifluoroacetate]
Aurora A; 1 μM compound, 20 μM ATP
  inhibition at 1 µM: > 50%

## O=C1Nc2ccccc2[C@]12C[C@H]2c1ccc2cn[nH]c2c1 (relative stereo) [Example A2, (1R*,2S*)-2-(1H-indazol-6-yl)spiro[cyclopropane-1,3′-indolin]-2′-one]
[1]; MDA-MB-468, 120 h
  GI50: > 10000 nM
[2]; read-out: Cell Line GI50 Range MCF-7, MCF-7 luminal breast cancer cell line
  GI50: > 10000 nM
[3]; HCC1954, 120 h
  GI50: > 10000 nM
[4]; A549, 120 h
  GI50: > 10000 nM
[5]; read-out: Cell Line GI50 Range SW-620, SW620 colon cancer cell line
  GI50: > 10000 nM

## COc1ccc2c(c1)[C@]1(C[C@@H]1c1ccc3c(-c4ccc(N5CCN(C)CC5)nc4)n[nH]c3c1)C(=O)N2 (relative stereo) [Example A17, (1R*,2R*)-5′-Methoxy-2-(3-(6-(4-methylpiperazin-1-yl)pyridin-3-yl)-1H-indazol-6-yl)spiro[cyclopropane-1,3′-indolin]-2′-one]
Aurora A; 1 μM compound, 20 μM ATP
  inhibition at 1 µM: < 50%
